Laboratory results from PubChem BioAssay AID1963868 (Molecular Pharmacology Branch, DTP, NCI, 2024).

System: KRAS PDC tumor spheroids (HUVEC+MSC), viability
Assay: Anticancer human tumor 254851-301-R-J1-PDC patient-derived colon carcinoma cell line growth inhibition [KRAS2]
Conditions: for IC50: curve of first compound; for viability, T/C: stronger effect = lower value
Outline: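 KRAS-mutant tumor cells were grown as spheroids with HUVEC endothelial cells and human MSCs as stroma. Targeted agents were tested alone and with KRAS pathway inhibitors. Doses started at or near clinical Cmax, or 10 microM, descending half-log.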

[1] = second compound 0.1 µM, first compound 0.0316 µM
[2] = second compound 0.1 µM, first compound 0.1 µM
[3] = second compound 0.1 µM, first compound 0.316 µM
[4] = second compound 0.1 µM, first compound 1 µM
[5] = second compound 0.1 µM, first compound 3.16 µM
[6] = second compound 0.1 µM, first compound 10 µM
[7] = second compound 0.316 µM, first compound 0.0316 µM
[8] = second compound 0.316 µM, first compound 0.1 µM
[9] = second compound 0.316 µM, first compound 0.316 µM
[10] = second compound 0.316 µM, first compound 1 µM
[11] = second compound 0.316 µM, first compound 3.16 µM
[12] = second compound 0.316 µM, first compound 10 µM
[13] = second compound 1 µM, first compound 0.0316 µM
[14] = second compound 1 µM, first compound 0.1 µM
[15] = second compound 1 µM, first compound 0.316 µM
[16] = second compound 1 µM, first compound 1 µM
[17] = second compound 1 µM, first compound 3.16 µM
[18] = second compound 1 µM, first compound 10 µM
[19] = second compound 3.16 µM, first compound 0.0316 µM
[20] = second compound 3.16 µM, first compound 0.1 µM
[21] = second compound 3.16 µM, first compound 0.316 µM
[22] = second compound 3.16 µM, first compound 1 µM
[23] = second compound 3.16 µM, first compound 3.16 µM
[24] = second compound 3.16 µM, first compound 10 µM
[25] = second compound 10 µM, first compound 0.0316 µM
[26] = second compound 10 µM, first compound 0.1 µM
[27] = second compound 10 µM, first compound 0.316 µM
[28] = second compound 10 µM, first compound 1 µM
[29] = second compound 10 µM, first compound 3.16 µM
[30] = second compound 10 µM, first compound 10 µM
[31] = second compound 0.1 µM, first compound 0.01 µM
[32] = second compound 0.316 µM, first compound 0.01 µM
[33] = second compound 1 µM, first compound 0.01 µM
[34] = second compound 3.16 µM, first compound 0.01 µM
[35] = second compound 10 µM, first compound 0.01 µM
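Note: spheroids exposed to compounds for seven days before readout.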
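Throughout, for viability, T/C: 100% = DMSO vehicle control luminescence of the spheroids.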

Compound	IC50 (second compound 0.1 µM)	IC50 (second compound 0.316 µM)	IC50 (second compound 1 µM)	IC50 (second compound 3.16 µM)	IC50 (second compound 10 µM)	viability, T/C [1]	viability, T/C [2]	viability, T/C [3]	viability, T/C [4]	viability, T/C [7]	viability, T/C [8]	viability, T/C [9]	viability, T/C [10]	viability, T/C [13]	viability, T/C [14]	viability, T/C [15]	viability, T/C [16]	viability, T/C [19]	viability, T/C [20]	viability, T/C [21]	further results
CC(C)NCC(C(=O)N1CCN(c2ncnc3c2C(C)CC3O)CC1)c1ccc(Cl)cc1 (stereo not given) + C=CC(=O)N1CCN(c2nc(=O)n(-c3c(C)ccnc3C(C)C)c3nc(-c4c(O)cccc4F)c(F)cc23)C(C)C1	> 10000 nM	> 10000 nM	> 10000 nM	> 10000 nM	> 10000 nM	98.2%	105%	92.1%	98.6%	97.4%	92.6%	91.7%	96.4%	96.9%	99.9%	93%	86.1%	98.1%	105%	95.5%	viability, T/C [5]: 98.4%; viability, T/C [6]: 97%; viability, T/C [11]: 89.2%; viability, T/C [12]: 89.8%; viability, T/C [17]: 92.5%; viability, T/C [18]: 91.2%; viability, T/C [22]: 98.1%; viability, T/C [23]: 93.8%; viability, T/C [24]: 88.4%; viability, T/C [25]: 98.7%; viability, T/C [26]: 102%; viability, T/C [27]: 92.1%; viability, T/C [28]: 85.4%; viability, T/C [29]: 93.4%; viability, T/C [30]: 94.7%
CC1COCCN1c1cc(-c2ccnn2C)c2ccnc(-c3ccn[nH]3)c2n1 (stereo not given) + C=CC(=O)N1CCN(c2nc(=O)n(-c3c(C)ccnc3C(C)C)c3nc(-c4c(O)cccc4F)c(F)cc23)C(C)C1	299 nM	288 nM	369 nM	79.7 nM	186 nM	96.8%	65.9%	50%	35.4%	96.8%	74.2%	47.6%	32.1%	85.3%	66.9%	51.6%	36.7%	70.3%	45.2%	27.3%	viability, T/C [31]: 112%; viability, T/C [5]: 22%; viability, T/C [32]: 96.5%; viability, T/C [11]: 23.5%; viability, T/C [33]: 87.6%; viability, T/C [17]: 20.8%; viability, T/C [34]: 74.5%; viability, T/C [22]: 29.7%; viability, T/C [23]: 34.8%; viability, T/C [35]: 103%; viability, T/C [25]: 87.3%; viability, T/C [26]: 59.5%; viability, T/C [27]: 40.8%; viability, T/C [28]: 29.9%; viability, T/C [29]: 22.5%
CCN1CCN(Cc2ccc(Nc3ncc(F)c(-c4cc(F)c5nc(C)n(C(C)C)c5c4)n3)nc2)CC1 + C=CC(=O)N1CCN(c2nc(=O)n(-c3c(C)ccnc3C(C)C)c3nc(-c4c(O)cccc4F)c(F)cc23)C(C)C1	960 nM	> 1000 nM	> 1000 nM	707 nM	> 1000 nM	96.9%	83.2%	73.2%	47.1%	90.4%	82.6%	73.2%	50.9%	92.8%	78.2%	75.7%	48.4%	97.1%	59.7%	71.4%	viability, T/C (second compound 0.1 µM, first compound 0.00316 µM): 114%; viability, T/C [31]: 101%; viability, T/C (second compound 0.316 µM, first compound 0.00316 µM): 113%; viability, T/C [32]: 107%; viability, T/C (second compound 1 µM, first compound 0.00316 µM): 104%; viability, T/C [33]: 101%; viability, T/C (second compound 3.16 µM, first compound 0.00316 µM): 89.5%; viability, T/C [34]: 87.4%; viability, T/C [22]: 42.6%; viability, T/C (second compound 10 µM, first compound 0.00316 µM): 96.4%; viability, T/C [35]: 105%; viability, T/C [25]: 102%; viability, T/C [26]: 83.2%; viability, T/C [27]: 73.8%; viability, T/C [28]: 56%
CCNC(=O)CC1N=C(c2ccc(Cl)cc2)c2cc(OC)ccc2-n2c(C)nnc21 (stereo not given) + C=CC(=O)N1CCN(c2nc(=O)n(-c3c(C)ccnc3C(C)C)c3nc(-c4c(O)cccc4F)c(F)cc23)C(C)C1	> 10000 nM	> 10000 nM	> 10000 nM	> 10000 nM	> 10000 nM	107%	99.6%	96.8%	91%	95%	86.4%	95.2%	76.2%	80.3%	94.8%	86.3%	80.7%	72.3%	76.1%	97%	viability, T/C [5]: 81%; viability, T/C [6]: 77.3%; viability, T/C [11]: 82.2%; viability, T/C [12]: 65.1%; viability, T/C [17]: 89.3%; viability, T/C [18]: 74.2%; viability, T/C [22]: 84.5%; viability, T/C [23]: 79.9%; viability, T/C [24]: 59.4%; viability, T/C [25]: 105%; viability, T/C [26]: 96.2%; viability, T/C [27]: 95.6%; viability, T/C [28]: 91.2%; viability, T/C [29]: 86%; viability, T/C [30]: 67.8%
